Experimental data: paper PMC7504215, “Copper(II) Complexes with Mixed Heterocycle Ligands as Promising Antibacterial and Antitumor Species” (Molecules, 2020)

Key:
MRSA = assay: MBEC assay, micro-titer method (biofilm); assay type: cell-based, Staphylococcus aureus
Experimental: (§1) The antibacterial assays were performed on Gram-negative (Escherichia coli ATCC 25922, E. coli 5, Pseudomonas aeruginosa ATCC 27853, P. aeruginosa ATCC 9027) and Gram-positive (Staphylococcus aureus ATCC 25923, S. aureus ATCC 6538, MRSA (Meticillin-resistant S. aureus) 388, ATCC, American Type Culture Collection) bacterial strains. Microbial suspensions (1.5 × 10^8 CFU/mL; colony forming units (CFU)) corresponding to 0.5 McFarland density obtained from 15 to 18-h bacterial cultures developed on solid media were used. The antimicrobial activity was tested on Mueller–Hinton agar medium.
(§2) The assessment of the complexes’ influence on the microbial ability to colonize an inert substratum with the establishment of the minimal biofilm eradication concentration (MBEC) was performed by the micro-titer method, following previously described protocols. The absorbance at 490 nm was measured with an Apollo LB 911ELISA (Berthold Technologies GmbH & Co. KG, Waltham, MA, USA) reader. All experiments were performed in triplicates.

S. aureus 6538 = assay: MBEC assay, micro-titer method (biofilm); assay type: cell-based, Staphylococcus aureus
Experimental: as §1, §2

E. coli 5 ESBL [1] = assay: MBEC assay, micro-titer method (biofilm); assay type: cell-based, Escherichia coli
Experimental: as §1, §2

E. coli 25922 [2] = assay: MBEC assay, micro-titer method (biofilm); assay type: cell-based, Escherichia coli
Experimental: as §1, §2

λ-DNA/EB adduct = assay: Quenching of fluorescence of λ-DNA/ethidium bromide adduct; assay type: binding, bacteriophage lambda; conditions: λ-DNA pre-treated with EB, increments of complex, pH 8
Experimental: To determine whether compounds have the capacity to interact with DNA, 48,500 base-pairs of genomic DNA from bacteriophage lambda (λ-DNA, Promega. Madison USA) was used. A stock solution of 10 µM λ-DNA (base-pair concentration) was prepared in 10 mM Tris/HCl buffer containing 1 mM NaCl, pH 8.
The binding of compounds to λ-DNA was assayed by monitoring the quenching of fluorescence emitted by λ-DNA/ethidium bromide (EB) adduct (λexcit = 510, maximum emission at λem = 601). The λ-DNA solution was added to the EB solution, prepared in the same buffer, then increasing concentrations of compounds were added to EB-DNA [2, 48]. The fluorescence spectra were recorded in the range of 550–750 nm using a Thermo Fischer Scientific Varioskan Flash spectral scanning multimode reader (Vantaa, Finland). The spectra were recorded in suitable plates using 5 nm excitation and emission slits for all measurements.

B16 cells = assay: Phalloidin staining and cell imaging (cytoskeleton, nucleus); assay type: cell-based, Mouse; conditions: 24 h, 6 μg/mL
Experimental: Cytoskeleton actin filaments of BJ and B16 cells were stained with phalloidin-FITC (Sigma-Aldrich, USA) according to the manufacturer’s protocol. Briefly, cells were washed with PBS (5 min, 3 times), fixed for 5 min with 3% paraformaldehyde, washed three times with PBS, permeabilized with 0.1% Triton X-100 in PBS for 15 min, washed three times with PBS, stained with 20 μg mL^−1 phalloidin-FITC at room temperature for 1 h and washed again three times with PBS. Cell nucleus was stained with 8 μM of Hoechst 33342 solution for 10 min, washed three times with PBS and finally, mounted and sealed on glass slides with FluorSave™ Reagent (Merck Millipore, Germany). The fluorescence images were acquired using an Andor DSD2 Confocal Unit (Andor, Ireland), mounted on an epifluorescence microscope, Olympus BX-51 (Olympus, Germany), equipped with a 40x and 100x objective and an appropriate DAPI/Hoechst filter cube (excitation filter 390/40 m, dichroic mirror 405 nm and emission filter 452/45 nm) and GFP/FITC filter cube (excitation filter 466/40 nm, dichroic mirror 488 nm and emission filter 525/54 nm).

plasmid pRSII325 = assay: Nuclease activity assay, gel electrophoresis; assay type: biochemical; conditions: for Nuclease activity in the presence of H2O2: 3 µM compound + 1 mM H2O2, 1 h at 37 °C; for Nuclease activity in the presence of ascorbate: 3 µM compound + 1 mM ascorbate; for Nuclease activity in the presence of ascorbate / Nuclease activity, compound alone: 1 h at 37 °C; for Nuclease activity, compound alone: 3 µM compound, no activating agent
Experimental: The nuclease activity of the compounds was determined using plasmid pRS325II DNA, which was a gift from Steven Haase (Addgene plasmid #35467, 6835 base pairs). The plasmid was amplified in Escherichia coli by transforming One Shot® TOP10 chemically competent E. coli from Invitrogen, Thermo Fisher Scientific (Vilnius, Lithuania). Plasmid was isolated from positive colonies using a PureLink™ HiPure Plasmid Miniprep Kit from Invitrogen, Thermo Fisher Scientific (Vilnius, Lithuania). Plasmid (200 ng/sample) was exposed to 3 µM compounds in the presence of 1 mM hydrogen peroxide (to exploit the Cu(II/III) redox couple) or 1 mM ascorbic acid (to exploit the Cu(I/II) redox couple). The DNA cleavage experiments for the complexes were done in a 9/1 (v/v) ratio of 50 mM Tris-HCl buffer, pH 8, and DMSO. The samples were incubated for 1 h at 37 °C before a bromophenol blue/xylene cyanol-based loading dye (Roth, Germany) was added to the samples. Partial cleavage of the plasmid to linear form was done with the restriction enzyme EcoRI (Promega, USA) by incubation for 5 min at 37 °C. The samples were loaded on a 1% (w/v) agarose gel containing 1 μg/mL EtBr in 1 × TAE (Tris–acetic acid–EDTA) buffer. Electrophoresis was performed at 100 V for 45 min in 1 × TAE buffer. The images of the fluorescent ethidium bromide-stained gels were captured using a gel documentation system (Doc-Print II, Vilber Lourmat, France). The cleavage experiments were done six times, with similar results. One representative gel is shown.

E. coli 5 ESBL [3] = assay: MIC assay, liquid medium microdilution (planktonic growth); assay type: cell-based, Escherichia coli; conditions: E. coli 5 ESBL, 24 h at 37 °C
Experimental: as §1
(§3) The quantitative assay of the antimicrobial activity was performed by the liquid medium microdilution method, in 96-well multi-well plates, to establish the minimal inhibitory concentration (MIC). For this purpose, serial two-fold dilutions of the compounds ranging between 1.000 and 1.95 μg/mL were performed in a 200 μL volume of broth and each well was seeded with 50 μL microbial inoculums. Sterility control (wells containing only culture medium) and culture controls (wells containing culture medium seeded with the microbial inoculum) were used. The influence of the DMSO solvent was also quantified in a series of wells containing DMSO, diluted accordingly with the dilution scheme used for the complexes. The plates were incubated for 24 h at 37 °C, and MIC values were considered as the lowest concentration of the tested compound that inhibited the visible growth of the microbial overnight cultures.

E. coli 25922 [4] = assay: as above; assay type: cell-based, Escherichia coli; conditions: E. coli 25922, 24 h at 37 °C
Experimental: as §1, §3

Row | SMILES | MBEC value (MRSA) [mM] | MBEC value (S. aureus 6538) [mM] | MBEC value (E. coli 5 ESBL [1]) [mM] | MBEC value (E. coli 25922 [2]) [mM] | Fluorescence of λ-DNA/EB adduct on adding complex (λ-DNA/EB adduct) | Cell morphology (cytoskeleton and nucleus) (B16 cells) | Nuclease activity in the presence of H2O2 (plasmid pRSII325) | Nuclease activity in the presence of ascorbate (plasmid pRSII325) | Nuclease activity, compound alone (plasmid pRSII325) | MIC (E. coli 5 ESBL [3]) [µM] | MIC (E. coli 25922 [4]) [µM]
1 | Cc1cc(-c2ccccc2)nc2ncnn12.[Cu+2].[O-][Cl+3]([O-])([O-])[O-].[O-][Cl+3]([O-])([O-])[O-].c1cnc2c(c1)ccc1cccnc12.c1cnc2c(c1)ccc1cccnc12 [(2), [Cu(phen)2(pmtp)](ClO4)2] | 0.05 | 0.02 | 0.05 | 0.02 | the fluorescence intensity decreased | affects the cell morphology | led to DNA degradation | led to DNA degradation | caused plasmid relaxation to the NC form | 50 | 20
2 | Cc1cc(-c2ccccc2)nc2ncnn12.[Cu+2].[O-][Cl+3]([O-])([O-])[O-].[O-][Cl+3]([O-])([O-])[O-].c1ccc(-c2ccccn2)nc1.c1ccc(-c2ccccn2)nc1 [(1), [Cu(bpy)2(pmtp)](ClO4)2] | 0.40 | 0.10 | 0.40 | 0.40 | the fluorescence intensity decreased | does not alter the morphology of the cells | led to DNA degradation | led to DNA degradation | caused plasmid relaxation to the NC form | 400 | 200
